Measured values reported in publication PMC4961458 (eLife, 2016).

Assays:
PR-B = biological target: T1, PR-B (Homo sapiens, UniProt P06401); assay: PR-B transcriptional reporter assay, agonist mode (HEPG2 cells); format: cell-based; settings: % of maximal R5020-stimulated activity
T1 construct: cloning full-length human PRb into pCDNA; expressed in transfected cells; host or cells: HEPG2
T1 sequence (P06401 1-933): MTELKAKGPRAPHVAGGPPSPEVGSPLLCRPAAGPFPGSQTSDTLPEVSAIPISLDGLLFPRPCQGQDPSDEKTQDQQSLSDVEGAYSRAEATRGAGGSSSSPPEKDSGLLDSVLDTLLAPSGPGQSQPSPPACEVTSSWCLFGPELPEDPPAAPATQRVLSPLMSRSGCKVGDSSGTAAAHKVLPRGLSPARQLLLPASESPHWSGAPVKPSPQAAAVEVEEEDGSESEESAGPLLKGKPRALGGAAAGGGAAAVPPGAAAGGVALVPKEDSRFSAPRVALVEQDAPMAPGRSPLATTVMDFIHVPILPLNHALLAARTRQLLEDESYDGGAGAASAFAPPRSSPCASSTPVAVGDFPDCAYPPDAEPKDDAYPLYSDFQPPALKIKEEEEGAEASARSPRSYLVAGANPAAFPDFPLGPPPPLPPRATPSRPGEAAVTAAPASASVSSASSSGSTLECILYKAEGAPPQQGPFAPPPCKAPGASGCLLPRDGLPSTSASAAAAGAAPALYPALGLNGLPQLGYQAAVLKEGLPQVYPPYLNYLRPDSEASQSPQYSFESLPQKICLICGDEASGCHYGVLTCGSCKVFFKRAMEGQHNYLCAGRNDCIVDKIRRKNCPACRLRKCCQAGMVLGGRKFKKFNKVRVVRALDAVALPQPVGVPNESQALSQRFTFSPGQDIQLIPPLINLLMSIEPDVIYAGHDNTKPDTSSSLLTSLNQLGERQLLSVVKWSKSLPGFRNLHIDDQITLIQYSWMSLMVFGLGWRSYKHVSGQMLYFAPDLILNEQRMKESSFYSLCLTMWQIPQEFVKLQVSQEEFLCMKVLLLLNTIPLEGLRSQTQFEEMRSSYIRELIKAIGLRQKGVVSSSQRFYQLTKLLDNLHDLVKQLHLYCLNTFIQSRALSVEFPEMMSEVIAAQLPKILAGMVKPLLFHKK

TamR1 tumors [1] = assay: Tamoxifen-resistant MCF7 (TamR1) xenograft efficacy; format: in vivo, mice; settings: 0.18 mg 60 day E2 pellets; tamoxifen 120 mg/kg/day p.o.; fulvestrant 200 mg/kg 3x/week s.c.; GDC-0810 10, 30 or 100 mg/kg/day p.o.; 27 days
Procedure: We previously generated a tamoxifen-resistant xenograft model, TamR1, by chronically treating MCF7 tumor bearing mice with tamoxifen until a resistant tumor emerged ([Lai et al., 2015]). […] These experiments were conducted in mice with relatively high levels of circulating estradiol, with estradiol being delivered via 0.72 mg 60 day release E2 pellets that are reported by the manufacturer (Innovative Research) to deliver between 300 and 400 pg/ml estradiol. Under these conditions the high E2 reduces the steady state ERα protein levels, thus confounding the readout of ERα protein as a pharmacodynamic endpoint (Figure 5—figure supplement 1). […] These pellets are sufficient to support tumor growth but only modestly reduce ERα levels (Figure 5—figure supplement 1).
Figure 5. […] (A) Tamoxifen-resistant MCF7 tumors were implanted in animals supplemented with 60-day release 0.18 mg 17β-estradiol pellets. […] S.c. is sub-cutaneous dosing, and p.o. is per os (by mouth) oral gavage dosing. * Denotes significance (p<0.05) compared to Vehicle in 1-Way ANOVA and Dunnett's Multiple Comparison Test. Figure 5—figure supplement 1. Effects of estradiol pellet on ERα levels in MCF7-TamR1 xenograft tumors. TamR1 tumor fragments were implanted into Crl:NU-Foxn1^nu mice implanted with either 0.72 or 0.18 mg/60 day 17-β estradiol pellets. Once tumors were established pellets were removed from 1 group. 28 days after pellet removal ERα protein levels were determined for 4 tumors from each group. Data is presented as average compared to Vehicle (-E2). Error is standard deviation. * Denotes significance (p<0.05) compared to Vehicle (-E2) by T-test. [drawing 7] […] (A) ERα protein levels were determined by western blot analysis of tumors 8 hr following the final compound treatment on day 27. […] KI-67 expression, quantified from IHC analysis. […]
The tamoxifen-resistant derivative of the ER+ human tumor cell line, MCF7 (TamR1) was developed by Seragon Pharmaceuticals, Inc ([Lai et al., 2015]). […] The tumors which continued to grow under these conditions were serially passaged and evaluated for continued tamoxifen resistance. […]

[2] = tested on: Doxycycline-inducible MCF7 cells over-expressing ER (ER.WT); assay: Cell viability, doxycycline-inducible ER over-expressing MCF7 cells; format: cell-based; settings: Homo sapiens, MCF7, 168 h, 7 days; for IC50: 0.1 nM E2, 10 ng/ml doxycycline; for EC50: estrogen-depleted medium, 10 ng/ml doxycycline, read-out: Cell viability EC50, ER.WT -E2
[3] = tested on: Doxycycline-inducible MCF7 cells (Vector); assay: Cell viability, doxycycline-inducible MCF7 cells, vector control; format: cell-based; settings: Homo sapiens, MCF7, 168 h, 7 days; for IC50: 0.1 nM E2, 10 ng/ml doxycycline; for EC50: estrogen-depleted medium, 10 ng/ml doxycycline, read-out: Cell viability EC50, Vector -E2
TamR1 tumors [4] = tested on: TamR1 tumors; design: method as in Lai et al., 2015; settings: 0.72 mg 60 day release E2 pellets; GDC-0810 p.o. 100 mg/kg/day; fulvestrant SC 200 mg/kg 3x/week; ref Lai et al., 2015; cited from earlier work

Row | SMILES | Emax (PR-B) | Tumor growth response, TamR1 xenograft, lower E2 (TamR1 tumors [1]) | IC50 [2] | EC50 [2] | IC50 [3] | EC50 [3] | Tumor growth response, TamR1 xenograft, high E2 (TamR1 tumors [4])
1 | CC/C(=C(\c1ccc(O)cc1)c1ccc(OCCN(C)C)cc1)c1ccccc1 [4-OH Tam, 4-hydroxytamoxifen] | 0.39 ± 0.23% | – | – | – | – | – | –
2 | C[C@]12CC[C@@H]3c4ccc(O)cc4C[C@@H](CCCCCCCCC[S+]([O-])CCCC(F)(F)C(F)(F)F)[C@H]3[C@@H]1CC[C@@H]2O (some centres unmarked) [Fulvestrant] | – | resulted in regression of TamR1 tumors | 11 nM | 1.2 nM | 7.2 nM | 0.8 nM | only modest tumor growth inhibition
3 | CC/C(=C(/c1ccc(/C=C/C(=O)O)cc1)c1ccc2[nH]ncc2c1)c1ccc(F)cc1Cl [GDC-0810] | 0.35 ± 0.31% | induced regression at all doses tested | 19 nM | 0.8 nM | 15 nM | 1 nM | induced tumor regressions
